Laboratory results reported in ChEMBL document CHEMBL1201862, “PubChem BioAssay data set” (2004).
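Following 48 hours of exposure in 96-well plates, responses at five concentrations were used to interpolate endpoints linearly. GI50 is the concentration that inhibits growth by half.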 Calls of active or inactive are those of the source. Rule as the data show it: active = GI50 up to about 1.1 µM and inactive = higher.

Columns and labels:
Experiment in all cases: DTP human tumour cell line panel, 48 h
[1] = system: ACHN
[2] = system: SNB-19
[3] = system: K562
[4] = system: OVCAR-4
[5] = system: DU-145
[6] = system: OVCAR-3
[7] = system: NCI-H460
[8] = system: HCT-116
[9] = system: UO-31
[10] = system: T47D
[11] = system: SK-MEL-28
[12] = system: UACC-62
[13] = system: HOP-92
[14] = system: NCI-H522
[15] = system: MDA-MB-435
[16] = system: HOP-62
[17] = system: LOX IMVI
[18] = system: HCC 2998
[19] = system: SF-539
[20] = system: KM12
[21] = system: OVCAR-5
[22] = system: PC-3
[23] = system: UACC-257
[24] = system: SN12C
[25] = system: EKVX
[26] = system: A549
[27] = system: SK-OV-3
[28] = system: CAKI-1
[29] = system: SR
[30] = system: A498
[31] = system: MDA-MB-231
[32] = system: HL-60
[33] = system: MCF7
[34] = system: Hs-578T
[35] = system: Malme-3M
[36] = system: TK-10
[37] = system: MDA-N
[38] = system: OVCAR-8
[39] = system: SNB-75
[40] = system: SK-MEL-2
[41] = system: MOLT-4
[42] = system: BT-549
[43] = system: HCT-15
[44] = system: CCRF-CEM
[45] = system: NCI-H226
[46] = system: RXF 393
[47] = system: RPMI-8226
[48] = system: IGROV-1
[49] = system: SF-268
[50] = system: NCI/ADR-RES
[51] = system: SW-620
[52] = system: SK-MEL-5
[53] = system: SF-295
[54] = system: 786-0
[55] = system: M14
[56] = system: NCI-H23
[57] = system: HT-29
[58] = system: U-251
[59] = system: COLO 205
[60] = system: KM-20L2
[61] = system: M19-MEL
[62] = system: LXFL 529
[63] = system: DMS-114
[64] = system: DMS-273
[65] = system: DLD-1
[66] = system: SNB-78

## CCOC(=O)/C(SC#N)=C(/N)N1CCCC1
[1]
  GI50: > 100 µM (inactive)
[2]
  GI50: > 100 µM (inactive)
[3]
  GI50: > 100 µM (inactive)
[4]
  GI50: > 100 µM (inactive)
[5]
  GI50: > 100 µM (inactive)
[6]
  GI50: > 100 µM (inactive)
[7]
  GI50: > 100 µM (inactive)
[8]
  GI50: > 100 µM (inactive)
[9]
  GI50: > 100 µM (inactive)
[10]
  GI50: > 100 µM (inactive)
[11]
  GI50: > 100 µM (inactive)
[12]
  GI50: > 100 µM (inactive)
[13]
  GI50: > 100 µM (inactive)
[14]
  GI50: > 100 µM (inactive)
[15]
  GI50: > 100 µM (inactive)
[16]
  GI50: > 100 µM (inactive)
[17]
  GI50: > 100 µM (inactive)
[18]
  GI50: > 100 µM (inactive)
[19]
  GI50: > 100 µM (inactive)
[20]
  GI50: > 100 µM (inactive)
[21]
  GI50: > 100 µM (inactive)
[22]
  GI50: > 100 µM (inactive)
[23]
  GI50: > 100 µM (inactive)
[24]
  GI50: > 100 µM (inactive)
[25]
  GI50: > 100 µM (inactive)
[26]
  GI50: > 100 µM (inactive)
[27]
  GI50: > 100 µM (inactive)
[28]
  GI50: > 100 µM (inactive)
[29]
  GI50: > 100 µM (inactive)
[30]
  GI50: > 60 µM (inactive)
[31]
  GI50: > 100 µM (inactive)
[32]
  GI50: > 100 µM (inactive)
[33]
  GI50: > 100 µM (inactive)
[34]
  GI50: > 100 µM (inactive)
[35]
  GI50: > 100 µM (inactive)
[36]
  GI50: > 100 µM (inactive)
[37]
  GI50: > 100 µM (inactive)
[38]
  GI50: > 100 µM (inactive)
[39]
  GI50: > 94.8 µM (inactive)
[40]
  GI50: > 100 µM (inactive)
[41]
  GI50: > 100 µM (inactive)
[42]
  GI50: > 100 µM (inactive)
[43]
  GI50: > 100 µM
[44]
  GI50: > 100 µM (inactive)
[45]
  GI50: > 100 µM (inactive)
[46]
  GI50: > 100 µM (inactive)
[47]
  GI50: > 100 µM (inactive)
[48]
  GI50: > 100 µM (inactive)
[49]
  GI50: > 100 µM (inactive)
[50]
  GI50: > 100 µM (inactive)
[51]
  GI50: > 100 µM (inactive)
[52]
  GI50: > 100 µM (inactive)
[53]
  GI50: > 100 µM (inactive)
[54]
  GI50: > 100 µM (inactive)
[55]
  GI50: > 100 µM (inactive)
[56]
  GI50: > 100 µM (inactive)
[57]
  GI50: > 100 µM (inactive)
[58]
  GI50: > 100 µM (inactive)
[59]
  GI50: > 100 µM (inactive)

## Clc1ccc(OCc2nnc3sc(-c4ccc(-c5ccc(Cl)cc5Cl)o4)nn23)c(Cl)c1
[1]
  GI50: 20 µM (inactive)
[2]
  GI50: 22.1 µM (inactive)
[3]
  GI50: 24.1 µM (inactive)
[4]
  GI50: 35.5 µM (inactive)
[5]
  GI50: 23.4 µM (inactive)
[6]
  GI50: 17.1 µM (inactive)
[7]
  GI50: 20.4 µM (inactive)
[8]
  GI50: 15.7 µM (inactive)
[9]
  GI50: 25.8 µM (inactive)
[10]
  GI50: 19.5 µM (inactive)
[11]
  GI50: 23.8 µM (inactive)
[12]
  GI50: 25.7 µM (inactive)
[13]
  GI50: 18.9 µM (inactive)
[14]
  GI50: 17.8 µM (inactive)
[15]
  GI50: 32.8 µM (inactive)
[16]
  GI50: 15.4 µM (inactive)
[17]
  GI50: 19.3 µM (inactive)
[18]
  GI50: 17.9 µM (inactive)
[19]
  GI50: 14.8 µM (inactive)
[20]
  GI50: 32.6 µM (inactive)
[21]
  GI50: 20 µM (inactive)
[22]
  GI50: 18.1 µM (inactive)
[23]
  GI50: 18.4 µM (inactive)
[24]
  GI50: 18.9 µM (inactive)
[25]
  GI50: 14.7 µM (inactive)
[26]
  GI50: 21.6 µM (inactive)
[27]
  GI50: 19.1 µM (inactive)
[28]
  GI50: 28.7 µM (inactive)
[29]
  GI50: 2.58 µM (inactive)
[30]
  GI50: 17.4 µM (inactive)
[31]
  GI50: 16.3 µM (inactive)
[32]
  GI50: 28.2 µM (inactive)
[33]
  GI50: 31.6 µM (inactive)
[34]
  GI50: 19.7 µM (inactive)
[35]
  GI50: 18.8 µM (inactive)
[36]
  GI50: 19.5 µM (inactive)
[37]
  GI50: 24.2 µM (inactive)
[38]
  GI50: 17.9 µM (inactive)
[39]
  GI50: 15 µM (inactive)
[40]
  GI50: 16.3 µM (inactive)
[41]
  GI50: 18.6 µM (inactive)
[42]
  GI50: 21.4 µM (inactive)
[43]
  GI50: 20.7 µM
[44]
  GI50: 25.3 µM (inactive)
[45]
  GI50: 20.4 µM (inactive)
[46]
  GI50: 14.8 µM (inactive)
[47]
  GI50: 24.2 µM (inactive)
[48]
  GI50: 17.8 µM (inactive)
[49]
  GI50: 15.6 µM (inactive)
[50]
  GI50: 20 µM (inactive)
[51]
  GI50: 34.7 µM (inactive)
[52]
  GI50: 20.1 µM (inactive)
[53]
  GI50: 16.9 µM (inactive)
[54]
  GI50: 13.3 µM (inactive)
[55]
  GI50: 25.5 µM (inactive)
[56]
  GI50: 21.6 µM (inactive)
[57]
  GI50: 22.7 µM (inactive)
[58]
  GI50: 19.8 µM (inactive)
[59]
  GI50: 26.1 µM (inactive)

## COc1cc2c(c(OC)c1OC)-c1ccc(SC)c(=O)cc1C(CC(=O)Oc1ccccc1F)C2 (configuration not stated)
[60]
  GI50: 0.0127 µM (active)
[1]
  GI50: 0.0834 µM (active)
[2]
  GI50: 0.0139 µM (active)
[3]
  GI50: < 0.0075 µM (active)
[4]
  GI50: 1.03 µM (active)
[6]
  GI50: 0.0119 µM (active)
[7]
  GI50: 0.0103 µM (active)
[8]
  GI50: < 0.0075 µM (active)
[9]
  GI50: 0.127 µM (active)
[11]
  GI50: 0.055 µM (active)
[12]
  GI50: < 0.0075 µM (active)
[13]
  GI50: 0.0377 µM (active)
[14]
  GI50: 0.0108 µM (active)
[61]
  GI50: 0.0218 µM (active)
[16]
  GI50: 0.0175 µM (active)
[17]
  GI50: < 0.0075 µM (active)
[18]
  GI50: 0.0307 µM (active)
[19]
  GI50: < 0.0075 µM (active)
[20]
  GI50: < 0.0075 µM (active)
[21]
  GI50: 2.94 µM (inactive)
[62]
  GI50: 0.0266 µM (active)
[24]
  GI50: 0.0193 µM (active)
[26]
  GI50: 0.0226 µM (active)
[63]
  GI50: 0.0152 µM (active)
[27]
  GI50: 0.0202 µM (active)
[28]
  GI50: 0.0172 µM (active)
[29]
  GI50: < 0.0075 µM (active)
[30]
  GI50: 0.0269 µM (active)
[32]
  GI50: < 0.0075 µM (active)
[64]
  GI50: 0.00991 µM (active)
[35]
  GI50: 0.0575 µM (active)
[36]
  GI50: > 7.5 µM (inactive)
[38]
  GI50: 0.0328 µM (active)
[39]
  GI50: > 7.5 µM (inactive)
[40]
  GI50: 0.0251 µM (active)
[41]
  GI50: 0.0531 µM (active)
[43]
  GI50: 0.0122 µM
[44]
  GI50: 0.0132 µM (active)
[45]
  GI50: 0.0413 µM (active)
[46]
  GI50: < 0.0075 µM (active)
[47]
  GI50: < 0.0075 µM (active)
[48]
  GI50: 0.164 µM (active)
[49]
  GI50: 0.036 µM (active)
[51]
  GI50: 0.00802 µM (active)
[52]
  GI50: 0.0215 µM (active)
[53]
  GI50: < 0.0075 µM (active)
[65]
  GI50: 0.0196 µM (active)
[54]
  GI50: < 0.0075 µM (active)
[55]
  GI50: 0.0175 µM (active)
[56]
  GI50: 0.0219 µM (active)
[57]
  GI50: 0.00841 µM (active)
[66]
  GI50: 0.0206 µM (active)
[58]
  GI50: < 0.0075 µM (active)
[59]
  GI50: 0.0136 µM (active)

## CC1=C(C2=C(C)C(=O)c3c(c(C=O)c(O)c(O)c3C(C)C)C2=O)C(=O)c2c(C=O)c(O)c(O)c(C(C)C)c2C1=O [GOSSYPOLONE]
[60]
  GI50: 2.21 µM (inactive)
[1]
  GI50: 2.96 µM (inactive)
[2]
  GI50: 4.44 µM (inactive)
[3]
  GI50: 2.95 µM (inactive)
[4]
  GI50: 3.05 µM (inactive)
[6]
  GI50: 2.31 µM (inactive)
[7]
  GI50: 2.98 µM (inactive)
[8]
  GI50: 2.36 µM (inactive)
[9]
  GI50: 2.17 µM (inactive)
[11]
  GI50: 4.8 µM (inactive)
[12]
  GI50: 2.77 µM (inactive)
[13]
  GI50: 2.53 µM (inactive)
[14]
  GI50: 4.67 µM (inactive)
[61]
  GI50: 4.32 µM (inactive)
[16]
  GI50: 3.64 µM (inactive)
[19]
  GI50: 2.69 µM (inactive)
[20]
  GI50: 2.24 µM (inactive)
[21]
  GI50: 1.89 µM (inactive)
[23]
  GI50: 3.99 µM (inactive)
[62]
  GI50: 3.4 µM (inactive)
[63]
  GI50: 2.23 µM (inactive)
[27]
  GI50: 3.21 µM (inactive)
[29]
  GI50: 3.97 µM (inactive)
[32]
  GI50: 2.99 µM (inactive)
[35]
  GI50: 4.33 µM (inactive)
[39]
  GI50: 6.59 µM (inactive)
[40]
  GI50: 1.75 µM (inactive)
[41]
  GI50: 2.74 µM (inactive)
[44]
  GI50: 1.82 µM (inactive)
[46]
  GI50: 2.34 µM (inactive)
[47]
  GI50: 2.29 µM (inactive)
[48]
  GI50: 2.69 µM (inactive)
[49]
  GI50: 2.72 µM (inactive)
[53]
  GI50: 1.93 µM (inactive)
[55]
  GI50: 1.96 µM (inactive)
[56]
  GI50: 3.72 µM (inactive)
[57]
  GI50: 2.19 µM (inactive)
[66]
  GI50: 2.2 µM (inactive)
[58]
  GI50: 2.64 µM (inactive)
[59]
  GI50: 3.18 µM (inactive)
